Data taken from ChEMBL document CHEMBL4418484, “Inhibitors of nkx2.5 for vascular remodelling” (2015).
Calls of active or inactive are those of the source. The calls are words filed in the database; no cut-off is given here.

How the values were obtained:
Mus musculus [1] = assay: Inhibition of right ventricular systolic pressure increase in […] mouse hypoxia/Sugen pre-clinical model of pulmonary hypertension at 80 mg/kg dosed daily for 20 days starting 8 days post experimental initiation; format: functional, organism-based
Mus musculus [2] = assay: Effect on systemic pressure in […] mouse hypoxia/Sugen pre-clinical model of pulmonary hypertension at 80 mg/kg dosed daily for 20 days starting immediately post experimental initiation; format: ADME, organism-based; settings: in vivo, 480 h
Homo sapiens [3] = organism: Homo sapiens; assay: Inhibition of casein kinase-2/Nkx2-5 in human pulmonary smooth muscle cells assessed as up-regulation of MYH11 protein expression at 10 nM by Western blot analysis
Homo sapiens [4] = organism: Homo sapiens; assay: Inhibition of casein kinase-2/Nkx2-5 in human pulmonary smooth muscle cells assessed as up-regulation of MYH11 protein expression at 1 nM by Western blot analysis
Homo sapiens [5] = organism: Homo sapiens; assay: Inhibition of cell migration of human pulmonary smooth muscle cells by standard scratch assay; format: functional
Homo sapiens [6] = organism: Homo sapiens; assay: Inhibition of casein kinase-2/Nkx2-5 in human pulmonary smooth muscle cells assessed as down-regulation of COL1 protein expression at 10 nM by Western blot analysis
Homo sapiens [7] = organism: Homo sapiens; assay: Inhibition of de-differentiation of human pulmonary smooth muscle cells assessed as reduction in contractile to synthetic forms change; format: functional
Homo sapiens [8] = organism: Homo sapiens; assay: Inhibition of cell proliferation of human pulmonary smooth muscle cells incubated up to 120 hrs; format: functional
Homo sapiens [9] = organism: Homo sapiens; assay: Inhibition of casein kinase-2/Nkx2-5 in human pulmonary smooth muscle cells assessed as down-regulation of CCN2 protein expression at 10 nM by Western blot analysis
Homo sapiens [10] = organism: Homo sapiens; assay: Inhibition of casein kinase-2/Nkx2-5 in human pulmonary smooth muscle cells assessed as down-regulation of COL1 protein expression at 1 nM by Western blot analysis
Mus musculus [11] = assay: Inhibition of right ventricular systolic pressure increase in […] mouse hypoxia/Sugen pre-clinical model of pulmonary hypertension at 80 mg/kg dosed daily for 20 days starting immediately post experimental initiation; format: functional, organism-based
Homo sapiens [12] = organism: Homo sapiens; assay: Inhibition of casein kinase-2/Nkx2-5 in human pulmonary smooth muscle cells assessed as up-regulation of ACTA2 protein expression at 10 nM by Western blot analysis
Homo sapiens [13] = organism: Homo sapiens; assay: Inhibition of casein kinase-2/Nkx2-5 in human pulmonary smooth muscle cells assessed as down-regulation of CCN2 protein expression at 1 nM by Western blot analysis
Homo sapiens [14] = organism: Homo sapiens; assay: Inhibition of casein kinase-2/Nkx2-5 in human pulmonary smooth muscle cells assessed as up-regulation of ACTA2 protein expression at 1 nM by Western blot analysis
Mus musculus [15] = assay: Effect on systemic pressure in […] mouse hypoxia/Sugen pre-clinical model of pulmonary hypertension at 80 mg/kg dosed daily for 20 days starting 8 days post experimental initiation; format: functional, organism-based
Homo sapiens [16] = organism: Homo sapiens; assay: Inhibition of casein kinase-2 in human pulmonary smooth muscle cells assessed as reduction in Nkx2-5 nuclear translocation
[17] = Effect on Nkx2-5 cytosolic expression in human pulmonary smooth muscle cells; format: ADME; settings: cytosol

| Structure (SMILES) | inhibition (Mus musculus [1]) | Activity (Mus musculus [2]) | inhibition (Homo sapiens [3]) | inhibition (Homo sapiens [4]) | inhibition (Homo sapiens [5]) | inhibition (Homo sapiens [6]) | inhibition (Homo sapiens [7]) | inhibition (Homo sapiens [8]) | inhibition (Homo sapiens [9]) | inhibition (Homo sapiens [10]) | inhibition (Mus musculus [11]) | inhibition (Homo sapiens [12]) | inhibition (Homo sapiens [13]) | inhibition (Homo sapiens [14]) | Activity (Mus musculus [15]) | inhibition (Homo sapiens [16]) | Activity [17] |
| --- | --- | --- | --- | --- | --- | --- | --- | --- | --- | --- | --- | --- | --- | --- | --- | --- | --- |
| O=C(O)c1ccc2c(c1)nc(Nc1cccc(Cl)c1)c1ccncc12 [SILMITASERTIB] | Active | Non-Toxic | Active | Active | Dose-dependent effect | Active | Dose-dependent effect | Dose-dependent effect | Active | Active | Active | Active | Active | Active | inactive | – | – |
| COc1cc(Nc2ncc3ccn(-c4cccc(CCC#N)c4)c3n2)cc(OC)c1OC | – | – | – | – | – | – | – | – | – | – | – | – | – | – | – | Active | Non-Toxic |
